Test results: patent US20240132513A1, “BENZAZEPINE DERIVATIVES, COMPOSITIONS, AND METHODS FOR TREATING COGNITIVE IMPAIRMENT” (AGENEBIO, INC., priority 2022, published 2024)
Read-outs that look alike come from different tables or passages of the source.

How the values were obtained:
[1] = molecular target: T1, GABAA R (α5β2γ2) (Homo sapiens, UniProt P18507+P31644); assay: Positive allosteric modulator activity: potentiation of EC20 GABA current in oocytes; assay type: cell-based
T1 construct: expressed in transfected cells
Description: On day 1, 1 ng/32 nL of GABAA α5β2γ2 cDNA was injected into one oocyte. Test starts on day 2. The cDNA injected to the oocytes was a mix of alpha, beta and gamma, their ratio is 1:1:10 (by weight) and the total weight of the mixed 3 subunits to be injected in one oocyte was 1 ng in 32 nl volume. The injected oocytes can also be tested on day 3. In such case, the cDNA amount injected to the oocytes should be reduced by 20%.
Compounds of the present disclosure were tested using the following procedures.
8 oocytes were placed in 8 chambers of OpusXpress and superfused with Modified Barth's Saline (MBS) at 3 mL/min. Glass electrodes back-filled with 3M KCl (0.5-3 megaohms) were used. Membrane potential of oocytes was voltage-clamped at −60 mV. • 2).
Control Test (Diazepam or Methyl 3,5-Diphenylpyridazine-4-Carboxylate) • 1). New oocytes was used to run new test. • 2). […] Oocytes were washed with MBS for 5-10 min. • 4). […] Itest was divided by IGABA to obtain potentiation (%).
Test Compounds at Multiple Doses • 1). Repeat the above steps 1), 2) and 3) in the control test. • 2). […] Divide Itest by IGABA to obtain potentiation (%). • 3). Discard all tested oocytes, new oocytes were used and the above steps 1) and 2) were repeated to test second concentration of the same compound. Each oocyte was used for only one concentration test for a single test compound. The steps were repeated for other test compounds.

[2] = molecular target: α5β3γ2 GABAA R (Homo sapiens, UniProt P18507+P31644); assay: Binding activity on GABAA R: inhibition of [3H]Ro15-1788 binding, α5 containing receptor
In short: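 Displacement of [3H]Ro15-1788 (flumazenil) measured at 4 °C over 1 h using 0.2 mg/ml membrane protein from Ltk cells carrying α5β3γ2 GABAA receptors, expression induced with 0.5 μM dexamethasone for 1 day; buffer pH 7.4 KH2PO4/EDTA/KCl. 10 μM diazepam defined nonspecific binding; filter-trapped radioactivity counted, in triplicate.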

[3] = read-out: GABA α5 Functional Data: potentiation, @ 100 nM, EC20 GABA, ranges of the column heads
[4] = read-out: GABA α5 Functional Data: potentiation
[5] = ranges of the column heads, [3H]Ro15-1788, Ltk cell membranes

α5β3γ2 GABAA R, sequence (P31644 32-462): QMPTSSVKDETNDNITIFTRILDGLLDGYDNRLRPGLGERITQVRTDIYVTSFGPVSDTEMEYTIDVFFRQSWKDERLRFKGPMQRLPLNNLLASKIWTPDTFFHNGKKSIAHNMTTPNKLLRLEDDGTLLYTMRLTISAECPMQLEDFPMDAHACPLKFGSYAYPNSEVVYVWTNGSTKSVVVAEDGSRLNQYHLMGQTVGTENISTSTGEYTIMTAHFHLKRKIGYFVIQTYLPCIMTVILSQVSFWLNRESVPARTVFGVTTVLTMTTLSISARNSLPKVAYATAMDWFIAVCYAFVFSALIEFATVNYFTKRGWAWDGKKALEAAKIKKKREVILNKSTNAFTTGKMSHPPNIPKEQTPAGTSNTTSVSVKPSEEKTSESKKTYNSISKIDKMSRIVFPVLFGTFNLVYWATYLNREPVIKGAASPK
α5β3γ2 GABAA R, sequence (P28472 26-473 partner): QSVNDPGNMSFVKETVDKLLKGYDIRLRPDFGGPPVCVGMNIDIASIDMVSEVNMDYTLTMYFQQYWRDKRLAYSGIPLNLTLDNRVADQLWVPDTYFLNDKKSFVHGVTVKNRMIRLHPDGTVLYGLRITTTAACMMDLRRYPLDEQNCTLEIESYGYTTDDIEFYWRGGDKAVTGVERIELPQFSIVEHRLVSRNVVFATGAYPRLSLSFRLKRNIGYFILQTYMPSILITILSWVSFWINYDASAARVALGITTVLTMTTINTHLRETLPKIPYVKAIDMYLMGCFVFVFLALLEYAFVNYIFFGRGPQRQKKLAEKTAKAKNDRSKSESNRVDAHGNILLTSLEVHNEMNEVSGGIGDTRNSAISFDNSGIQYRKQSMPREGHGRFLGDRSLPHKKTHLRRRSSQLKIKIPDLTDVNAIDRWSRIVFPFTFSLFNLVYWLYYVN
α5β3γ2 GABAA R, sequence (P18507 40-475): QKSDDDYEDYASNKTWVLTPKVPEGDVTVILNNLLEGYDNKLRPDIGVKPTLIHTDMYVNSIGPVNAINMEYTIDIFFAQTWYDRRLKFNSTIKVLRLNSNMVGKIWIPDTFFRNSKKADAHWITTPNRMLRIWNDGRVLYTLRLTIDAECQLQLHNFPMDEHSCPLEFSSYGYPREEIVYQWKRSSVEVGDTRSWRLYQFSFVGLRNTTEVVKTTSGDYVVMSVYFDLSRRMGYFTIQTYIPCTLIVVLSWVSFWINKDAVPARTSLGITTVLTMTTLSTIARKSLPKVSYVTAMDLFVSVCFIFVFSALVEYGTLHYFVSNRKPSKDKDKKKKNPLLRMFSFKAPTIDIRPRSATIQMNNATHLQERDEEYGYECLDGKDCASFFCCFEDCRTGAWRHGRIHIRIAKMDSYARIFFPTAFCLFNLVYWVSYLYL
T1 sequence (P31644 32-462): as the sequence (P31644 32-462) above
T1 sequence (P47870 25-512 partner limits assumed): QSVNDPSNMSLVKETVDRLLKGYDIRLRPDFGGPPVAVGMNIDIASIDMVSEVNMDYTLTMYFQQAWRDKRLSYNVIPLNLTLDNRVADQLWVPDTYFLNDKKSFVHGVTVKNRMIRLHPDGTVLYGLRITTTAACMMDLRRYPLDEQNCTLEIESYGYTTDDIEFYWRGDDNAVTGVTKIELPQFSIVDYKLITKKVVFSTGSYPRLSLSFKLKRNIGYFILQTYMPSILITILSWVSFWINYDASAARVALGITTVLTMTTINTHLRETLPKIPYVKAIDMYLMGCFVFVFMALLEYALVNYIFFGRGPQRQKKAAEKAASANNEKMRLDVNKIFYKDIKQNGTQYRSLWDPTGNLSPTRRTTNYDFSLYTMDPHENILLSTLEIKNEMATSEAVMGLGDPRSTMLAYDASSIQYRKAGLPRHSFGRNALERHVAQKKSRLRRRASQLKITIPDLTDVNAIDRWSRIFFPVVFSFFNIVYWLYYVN
T1 sequence (P18507 40-475): as the sequence (P18507 40-475) above

| Compound | activation at 0.1 µM [1, 3] | Ki [2] | activation at 0.1 µM [1, 4] | Ki [2, 5] |
| --- | --- | --- | --- | --- |
| CCn1cc2c(n1)-c1cc(Cl)ccc1-n1cnc(C3=N[C@H](c4ccccc4)CO3)c1C2 [Compound 178] | 20 to 50% | < 100 nM | – | – |
| COc1ccc2c(c1)-c1[nH]ncc1Cc1c(-c3noc(C4COCCO4)n3)ncn1-2 (stereo not shown) [Compound 187] | 20 to 50% | < 100 nM | – | – |
| COc1ccc2c(c1)-c1[nH]ncc1Cc1c(-c3noc(C)n3)ncn1-2 [Compound 88] | 5 to 20% | < 100 nM | – | – |
| COc1ccc2c(c1)-c1nn(C)cc1Cc1c(-c3noc(COCC(F)(F)F)n3)ncn1-2 [Compound 183] | > 50% | < 100 nM | – | – |
| CC(C)n1cc2c(n1)-c1cc(Cl)ccc1-n1cnc(-c3noc(C(F)(F)F)n3)c1C2 [Compound 148] | – | – | 5 to 20% | < 100 nM |
| COc1ccc2c(c1)-c1nn(C)cc1Cc1c(-c3noc(C(C)(C)OC)n3)ncn1-2 [Compound 185] | 20 to 50% | < 100 nM | – | – |
| CCOC(=O)c1ncn2c1Cc1cnoc1-c1cc(Cl)ccc1-2 [Compound 57] | – | – | 5 to 20% | < 100 nM |
| COc1ccc2c(c1)-c1c(cnn1CC1CCCO1)Cc1c(-c3nc(C(C)C)no3)ncn1-2 (stereo not shown) [Compound 244] | 5 to 20% | < 100 nM | – | – |
| CC(C)c1noc(-c2ncn3c2Cc2cn(Cc4ccccn4)nc2-c2cc(Cl)ccc2-3)n1 [Compound 99] | – | < 100 nM | 20 to 50% | – |
| COc1ccc2c(c1)-c1nn(C)cc1Cc1c(-c3nc(C(C)C)no3)ncn1-2 [Compound 46] | 5 to 20% | < 100 nM | – | – |
| Cn1cc2c(n1)-c1cc(Cl)ccc1-n1cnc(-c3noc(C4COCCO4)n3)c1C2 (stereo not shown) [Compound 213] | > 50% | < 100 nM | – | – |
| COc1ccc2c(c1)-c1nn(C)cc1Cc1c(-c3noc(C4CC4)n3)ncn1-2 [Compound 132] | – | – | 20 to 50% | < 100 nM |
| COc1ccc2c(c1)-c1nn(CC3CCCO3)cc1Cc1c(-c3nnc(C(F)(F)F)o3)ncn1-2 (stereo not shown) [Compound 302] | 5 to 20% | < 100 nM | – | – |
| Cn1cc2c(n1)-c1cc(Cl)ccc1-n1cnc(-c3noc(C4(C)COC4)n3)c1C2 [Compound 225] | 20 to 50% | < 100 nM | – | – |
| Cn1cc2c(n1)-c1cc(Cl)ccc1-n1cnc(-c3nc(C(F)(F)F)no3)c1C2 [Compound 122] | 5 to 20% | < 100 nM | – | – |
| COc1ccc2c(c1)-c1nn(Cc3ccccc3F)cc1Cc1c(-c3nc(C)no3)ncn1-2 [Compound 21] | 5 to 20% | < 100 nM | – | – |
| CC(C)c1noc(-c2ncn3c2Cc2cn(CC4CCOC4)nc2-c2cc(Cl)ccc2-3)n1 (stereo not shown) [Compound 201] | 5 to 20% | < 100 nM | – | – |
| COc1ccc2c(c1)-c1nn(C)cc1Cc1c(-c3nc([C@@H]4CCOC4)no3)ncn1-2 [Compound 260] | 5 to 20% | < 100 nM | – | – |
| COc1ccc2c(c1)-c1[nH]ncc1Cc1c(-c3noc(C(F)(F)F)n3)ncn1-2 [Compound 87] | – | – | 20 to 50% | < 100 nM |
| COc1ccc2c(c1)-c1nn(C3CCOC3)cc1Cc1c(-c3nc(C4CC4)no3)ncn1-2 (stereo not shown) [Compound 247] | 20 to 50% | < 100 nM | – | – |
| Clc1ccc2c(c1)-c1nn(CC3CCCO3)cc1Cc1c(-c3noc(C4COCCO4)n3)ncn1-2 (stereo not shown) [Compound 305] | 5 to 20% | < 100 nM | – | – |
| Cn1cc2c(n1)-c1cc(Cl)ccc1-n1cnc(-c3noc(C4CC4)n3)c1C2 [Compound 142] | 20 to 50% | < 100 nM | – | – |
| FC(F)(F)c1noc(-c2ncn3c2Cc2cn[nH]c2-c2cc(Cl)ccc2-3)n1 [Compound 106] | 20 to 50% | < 100 nM | – | – |
| CC(C)c1nc(-c2ncn3c2Cc2cn(C)nc2-c2cc(Cl)ccc2-3)no1 [Compound 141] | 20 to 50% | < 100 nM | – | – |

| Compound | activation at 0.1 µM [1, 3] | Ki [2] | activation at 0.1 µM [1, 4] | Ki [2, 5] |
| --- | --- | --- | --- | --- |
| CCn1ncc2c1-c1cc(Cl)ccc1-n1cnc(-c3nc(C4CC4)no3)c1C2 [Compound 139] | – | – | 20 to 50% | < 100 nM |
| COCCn1cc2c(n1)-c1cc(OC)ccc1-n1cnc(-c3nc(COC)no3)c1C2 [Compound 300] | 20 to 50% | < 100 nM | – | – |
| COc1ccc2c(c1)-c1nn(C)cc1Cc1c(-c3nc(C4CCOCC4)no3)ncn1-2 [Compound 220] | 20 to 50% | < 100 nM | – | – |
| Cn1cc2c(n1)-c1cc(Cl)ccc1-n1cnc(-c3noc(C4CCOC4)n3)c1C2 (stereo not shown) [Compound 145] | 5 to 20% | < 100 nM | – | – |
| CCn1cc2c(n1)-c1cc(Cl)ccc1-n1cnc(-c3nc(C(C)C)no3)c1C2 [Compound 104] | – | – | 5 to 20% | < 100 nM |
| Cn1cc2c(n1)-c1cc(Cl)ccc1-n1cnc(-c3cnn(CC4CCCO4)c3)c1C2 (stereo not shown) [Compound 222] | 5 to 20% | < 100 nM | – | – |
| CC(C)c1nc(-c2ncn3c2Cc2cn[nH]c2-c2cc(Cl)ccc2-3)no1 [Compound 84] | 5 to 20% | < 100 nM | – | – |
| COc1ccc2c(c1)-c1nn(C)cc1Cc1c(-c3noc(C4CCOC4)n3)ncn1-2 (stereo not shown) [Compound 136] | 20 to 50% | < 100 nM | – | – |
| CCOCc1nc(-c2ncn3c2Cc2cn(C)nc2-c2cc(OC)ccc2-3)no1 [Compound 137] | 20 to 50% | < 100 nM | – | – |
| COc1ccc2c(c1)-c1nn(C(C)C)cc1Cc1c(-c3nc(C4CC4)no3)ncn1-2 [Compound 169] | – | – | 5 to 20% | < 100 nM |
| COc1ccc2c(c1)-c1nn(CC3CCOC3)cc1Cc1c(-c3nc(C4CC4)no3)ncn1-2 (stereo not shown) [Compound 168] | 20 to 50% | < 100 nM | – | – |
| CC(C)(C)c1noc(-c2ncn3c2Cc2cn[nH]c2-c2cc(Cl)ccc2-3)n1 [Compound 35] | 20 to 50% | < 100 nM | – | – |
| COCc1noc(-c2ncn3c2Cc2cn(C4CCOC4)nc2-c2cc(Cl)ccc2-3)n1 (stereo not shown) [Compound 275] | 5 to 20% | < 100 nM | – | – |
| CCn1cc2c(n1)-c1cc(Cl)ccc1-n1cnc(C3=N[C@H](C(C)C)CO3)c1C2 [Compound 177] | 5 to 20% | < 100 nM | – | – |
| COc1ccc2c(c1)-c1nn(C)cc1Cc1c(-c3noc(COC4CCCC4)n3)ncn1-2 [Compound 297] | 5 to 20% | < 100 nM | – | – |
| COCc1nc(-c2ncn3c2Cc2cn(C)nc2-c2cc(OC)ccc2-3)no1 [Compound 153] | – | – | 20 to 50% | < 100 nM |
| CC(C)n1cc2c(n1)-c1cc(Cl)ccc1-n1cnc(-c3ncco3)c1C2 [Compound 167] | 5 to 20% | < 100 nM | – | – |
| COCc1nc(-c2ncn3c2Cc2cn(CC4CCCO4)nc2-c2cc(Cl)ccc2-3)no1 (stereo not shown) [Compound 304] | 5 to 20% | < 100 nM | – | – |
| Clc1ccc2c(c1)-c1nn(CC3COC3)cc1Cc1c(-c3nc(C4CC4)no3)ncn1-2 [Compound 224] | 20 to 50% | < 100 nM | – | – |
| Cn1cc2c(n1)-c1cc(Cl)ccc1-n1cnc(-c3noc(C4(F)CC4)n3)c1C2 [Compound 218] | 20 to 50% | < 100 nM | – | – |
| CCn1cc2c(n1)-c1cc(Cl)ccc1-n1cnc(-c3nc(C)no3)c1C2 [Compound 159] | 20 to 50% | < 100 nM | – | – |
| CC(C)c1noc(-c2ncn3c2Cc2cn(CC4CCCO4)nc2-c2cc(Cl)ccc2-3)n1 (stereo not shown) [Compound 193] | 20 to 50% | < 100 nM | – | – |
| CC(C)c1noc(-c2ncn3c2Cc2cn(Cc4ccccc4)nc2-c2cc(Cl)ccc2-3)n1 [Compound 96] | – | – | 5 to 20% | < 100 nM |
